From patent US12162836B2, “N-acyl-{4-[(4-aryl-phenyl)sulfonylmethyl]piperidine} compounds and their therapeutic use” (Modern Biosciences Limited, priority 2019, dated 2024)

Legend:
[1] = system: collagen-induced arthritis in DBA/1j mice; assay: Mouse Collagen-Induced Arthritis; assay type: in vivo; conditions: 10 mg/kg/day, once daily for 14 days, oral gavage; arthritic index vs control
Protocol: Seven- to eight-week-old male DBA/1j mice were used for all procedures. Animals were housed in groups of 10, and were maintained at 21° C.±2° C. on a 12-hour light/dark cycle with food and water ad libitum. Complete Freund's adjuvant (CFA) was prepared by emulsifying bovine type II collagen at 4 mg/mL with a 4 mg/mL suspension of Mycobacterium tuberculosis H37Ra in Incomplete Freund's Adjuvant (IFA) (0.85 mL paraffin oil and 0.15 mL mannide monooleate) in a 1:1 (v/v) ratio. All mice were immunised subcutaneously with 200 μg of bovine type II collagen in CFA. 21 days later, all mice were immunised subcutaneously with 100 μg of bovine type II collagen in IFA. The mice started to develop signs and symptoms of arthritis following the ‘booster’ immunisation.
For macroscopic assessment of arthritis, the following signs were monitored in each paw of each mouse three times per week and summed to generate the Arthritic Index (A1) (the maximum A1 for one animal is 16): • 0=no visible effects of arthritis. • 1=oedema and/or erythema of 1 digit. • 2=oedema and/or erythema of 2 digits. • 3=oedema and/or erythema of more than 2 digits. • 4=severe arthritis of entire paw and digits.
Animals were sorted into treatment groups with a mean arthritic index of 2.5 and then dosed once daily for 14 days with compound: by oral gavage for test compounds, or by subcutaneous injection at a dose of 10 mg/kg for the positive control, etanercept. After completion of the experiment, the mice were sacrificed.
The data were analysed by generating an average of the arthritic index across each treatment group. The mean arthritic index was then compared to the arthritic index of control (untreated) animals using the following formula to generate a percentage inhibition of disease.

hERG ion channel = hERG ion channel (Homo sapiens (Human), UniProt Q12809); assay: hERG Ion Channel binding assay (3H astemizole displacement)
Sequence of hERG ion channel (Q12809 whole entry): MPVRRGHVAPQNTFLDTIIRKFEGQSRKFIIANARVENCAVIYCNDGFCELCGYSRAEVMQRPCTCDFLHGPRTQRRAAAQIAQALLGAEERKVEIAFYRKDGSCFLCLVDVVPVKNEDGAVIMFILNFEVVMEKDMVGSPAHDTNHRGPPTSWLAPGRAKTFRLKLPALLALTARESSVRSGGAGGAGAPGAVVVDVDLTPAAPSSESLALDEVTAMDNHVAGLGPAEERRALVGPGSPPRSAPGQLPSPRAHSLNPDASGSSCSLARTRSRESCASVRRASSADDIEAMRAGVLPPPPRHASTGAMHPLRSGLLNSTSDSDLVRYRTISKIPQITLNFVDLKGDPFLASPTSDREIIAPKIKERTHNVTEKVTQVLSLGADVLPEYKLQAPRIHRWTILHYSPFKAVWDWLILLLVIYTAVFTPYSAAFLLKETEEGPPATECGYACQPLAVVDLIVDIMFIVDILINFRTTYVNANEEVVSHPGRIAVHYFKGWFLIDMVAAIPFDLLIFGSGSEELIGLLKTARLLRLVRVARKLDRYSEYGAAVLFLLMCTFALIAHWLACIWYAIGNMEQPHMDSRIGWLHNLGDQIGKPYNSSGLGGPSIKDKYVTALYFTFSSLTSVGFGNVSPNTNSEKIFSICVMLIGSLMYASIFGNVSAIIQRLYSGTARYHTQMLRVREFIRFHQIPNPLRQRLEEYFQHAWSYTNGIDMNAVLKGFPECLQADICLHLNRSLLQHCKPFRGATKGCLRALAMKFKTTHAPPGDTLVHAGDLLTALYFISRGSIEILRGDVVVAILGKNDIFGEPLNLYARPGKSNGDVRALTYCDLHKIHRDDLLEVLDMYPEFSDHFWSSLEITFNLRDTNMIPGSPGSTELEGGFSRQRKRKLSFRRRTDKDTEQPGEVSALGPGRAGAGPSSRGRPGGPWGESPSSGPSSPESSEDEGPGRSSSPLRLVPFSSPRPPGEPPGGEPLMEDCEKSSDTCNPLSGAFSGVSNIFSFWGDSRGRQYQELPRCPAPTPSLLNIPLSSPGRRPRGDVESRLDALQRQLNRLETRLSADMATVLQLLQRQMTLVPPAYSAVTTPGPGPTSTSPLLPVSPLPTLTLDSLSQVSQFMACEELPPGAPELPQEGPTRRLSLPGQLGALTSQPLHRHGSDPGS
How it was run: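 Membranes from stably transfected hERG-HEK293 cells incubated with 1.5 nM ³H-astemizole ± test compound in HEPES buffer pH 7.4 (0.1% BSA, 5 mM KCl, 130 mM NaCl) at 25° C for 60 min. Bound ligand measured by filtration and scintillation counting; reported as % displacement (0% none, 100% complete).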

[2] = system: human, rat (Sprague Dawley) and dog (Beagle) hepatocytes; assay: Metabolite identification (biaryl metabolite detection) in cryopreserved hepatocytes; assay type: in vitro ADME; conditions: primary hepatocyte incubations, 10 μM, final time point (60 minutes)
Protocol: The formation of metabolites in humans, rats and dogs was assessed to determine the propensity of the compounds to form a biaryl metabolite.
In vitro studies on the metabolism of drugs are usually performed using liver preparations such as isolated perfused livers, liver slices, liver homogenates, isolated cryopreserved hepatocytes, subcellular liver fractions (S9, cytosol, and microsomes), or recombinant metabolizing enzymes overexpressed on non-expressing cell systems, particularly CYP enzymes. Cryopreserved hepatocytes contain all the enzymes and co-factors needed for phase I and phase II drug metabolism, making them an excellent in vitro model for assessment of drug metabolic stability and metabolite profiling.
Cryopreserved human, rat (Sprague Dawley) and dog (Beagle) hepatocytes were revived from liquid nitrogen and plated at a seeding density of 2×10^6 cells/mL (>95% viability). Following a 15 minute incubation at 37° C. a sample was removed for a zero (0) minute time point assessment. […]
All samples were processed for analysis by protein precipitation using 500 μL ice-cold acetonitrile and analysed with a fit-for-purpose LC-MS/MS method.
At the completion of the study, the results were expressed as detection of the biaryl metabolite at the final time point.

Row | SMILES | % inhibition of disease [1] [%] | cardiac safety profile, hERG (in words) (hERG ion channel) | Biaryl metabolite detected? [2]
1 | CC1(O)CCC(NS(=O)(=O)c2ccc(-c3ccc(F)cc3F)cc2)CC1 (centres unmarked) [ABD899, reference compound] | 77 |  | 
2 | CC(=O)N1CCC(CS(=O)(=O)c2ccc(-c3ccc(F)cc3F)cc2)CC1 [NASMP-01, 1-(4-(((2′,4′-Difluoro-[1,1′-biphenyl]-4-yl)sulfonyl)methyl)piperidin-1-yl)ethan-1-one] | 64 | particularly positive profile | No
3 | CC(=O)N1CCC(CS(=O)(=O)c2ccc(-c3c(F)cccc3F)cc2)CC1 [NASMP-09, 1-(4-(((2′,6′-Difluoro-[1,1′-biphenyl]-4-yl)sulfonyl)methyl)piperidin-1-yl)ethan-1-one] |  | particularly positive profile | 
